The results in this text go back to patent publication US9169252B2 (BRISTOL-MYERS SQUIBB COMPANY, priority 2014, dated 2015).

Where two headings read alike, the source gives them in different places.

One test has as its target IRAK4 (Homo sapiens (Human), UniProt Q9NWZ3). The test can be described thus: IRAK4 Inhibition Assay. The format is biochemical. As to conditions: ATP 500 μM, read-out: IRAK4 IC50. In short, it runs like this: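 IRAK4 combined with fluorescent substrate and compounds, reacted 60 min at room temperature, stopped with 35 mM EDTA. Substrate and phosphorylated product separated electrophoretically on a Caliper LabChip 3000 mobility-shift reader.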

In test [1] the test system is TLR2 induced IL-6 in peripheral blood mononuclear cells (PBMCs). Nature of the test: PBMC TLR2 Induced IL-6 Assay. As to conditions: Homo sapiens, PBMC, IL-6 by ELISA; for IC50: read-out: Cell IC50. The format is cell-based, human. The essentials:
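Lipoteichoic acid at 10 µg/ml served as TLR2 stimulus for 5 hours, following a 30-minute compound pretreatment at 37° C. Cells were Ficoll-isolated human PBMCs, 250000 cells/well, cultured in RPMI plus 10% heat-inactivated FCS.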
For orientation: An ELISA detects its analyte on a solid surface through an enzyme-linked reagent.

Setting [2] is: PBMC TLR2 Induced IL-6 Assay, lipoteichoic acid stimulation.
The mark [3] stands for this setting: human PBMCs, lipoteichoic acid stimulated.

Chain of IRAK4 (Q9NWZ3 whole entry, species assumed): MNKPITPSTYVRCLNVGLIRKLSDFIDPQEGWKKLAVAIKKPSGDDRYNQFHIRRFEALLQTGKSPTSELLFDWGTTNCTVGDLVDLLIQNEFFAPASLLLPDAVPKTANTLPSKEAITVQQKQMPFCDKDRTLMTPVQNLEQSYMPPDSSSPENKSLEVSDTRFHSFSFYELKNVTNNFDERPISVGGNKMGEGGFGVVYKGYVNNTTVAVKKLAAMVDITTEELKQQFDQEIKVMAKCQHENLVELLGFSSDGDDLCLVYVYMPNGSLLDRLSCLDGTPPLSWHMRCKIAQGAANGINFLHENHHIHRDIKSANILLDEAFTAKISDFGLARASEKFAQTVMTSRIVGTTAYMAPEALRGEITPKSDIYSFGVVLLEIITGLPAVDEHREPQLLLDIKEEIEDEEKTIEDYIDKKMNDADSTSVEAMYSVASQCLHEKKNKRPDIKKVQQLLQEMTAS

For the molecule `CC(C)(O)[C@H](F)CNC(=O)c1cnc(-n2ncc3cc(C#N)cnc32)cc1Nc1cnn(CC(F)F)c1` [Example 347, (R)-6-(5-Cyano-1H-pyrazolo[3,4-b]pyridin-1-yl)-4-((1-(2,2-difluoroethyl)-1H-pyrazol-4-yl)amino)-N-(2-fluoro-3-hydroxy-3-methylbutyl)nicotinamide], the IC50 – broadly, the point on the concentration scale where inhibition reaches its midpoint – is 1.3 nM on IRAK4 (IRAK4 Inhibition Assay) and 146 nM in test [1] (setting [2]).
In the case of `CC(C)(O)[C@H](F)CNC(=O)c1cnc(-n2ncc3cc(C#N)cnc32)cc1Nc1cnn(C2COC2)c1` [Example 348], the IC50 at IRAK4 (IRAK4 Inhibition Assay) came out at 1.8 nM; in test [1] (setting [2]) it was 489 nM.
Consider `CC(C)(O)[C@H](F)CNC(=O)c1cnc(-n2ncc3cc(C#N)cnc32)cc1Nc1cnn(C2CCOCC2)c1` [Example 349], for which the IC50 amounted to 3.3 nM at IRAK4 (IRAK4 Inhibition Assay) and 180 nM in test [1] (setting [2]).
For `CC(C)(O)[C@H](F)CNC(=O)c1cnc(-n2ncc3cc(Cl)cnc32)cc1Nc1cnn(CC(F)F)c1` [Example 351], the IC50 at IRAK4 (IRAK4 Inhibition Assay) came out at 2.3 nM; in test [1] (setting [2]) it was 27 nM.
Regarding `CC(C)(O)[C@H](F)CNC(=O)c1cnc(-n2ncc3cc(Cl)cnc32)cc1Nc1cnn(C2CCOCC2)c1` [Example 352], the results for the IC50 (on IRAK4 (IRAK4 Inhibition Assay); in test [1] (setting [2])) were 6.5 nM and 170 nM, respectively.
Take `CC(C)(O)[C@H](F)CNC(=O)c1cnc(-n2ncc3cc(C#N)cnc32)cc1Nc1cnn(CC(F)(F)F)c1` [Example 353]: the results for the IC50 (at IRAK4 (IRAK4 Inhibition Assay); in test [1] (setting [2])) were 1.7 nM and 18 nM, respectively.
Regarding `CC(C)(O)[C@H](F)CNC(=O)c1cnc(-n2ncc3cc(Cl)cnc32)cc1Nc1cnn(CC(F)(F)F)c1` [Example 354], the values for the IC50 (at IRAK4 (IRAK4 Inhibition Assay); in test [1] (setting [2])) were 1.9 nM and 115 nM, respectively.
For `CCn1cc(Nc2cc(-n3ncc4cc(C#N)cnc43)ncc2C(=O)NC[C@@H](F)C(C)(C)O)cn1` [Example 355], the IC50 at IRAK4 (IRAK4 Inhibition Assay) was found to be 2.4 nM; in test [1] (setting [2]) it was 122 nM.
Regarding `CC(C)(F)Cn1cc(Nc2cc(-n3ncc4cc(C#N)cnc43)ncc2C(=O)NC[C@@H](F)C(C)(C)O)cn1` [Example 356], the IC50 on IRAK4 (IRAK4 Inhibition Assay) stood at 2.4 nM; in test [1] (setting [2]), 154 nM.
For `CCn1cc(Nc2cc(-n3ncc4cc(Cl)cnc43)ncc2C(=O)NC[C@@H](F)C(C)(C)O)cn1` [Example 357], in that order: 1.7 nM and 67 nM.
In the same order, the values of `CC(C)n1cc(Nc2cc(-n3ncc4cc(Cl)cnc43)ncc2C(=O)NC[C@@H](F)C(C)(C)O)cn1` [Example 358] are 3.5 nM and 257 nM.
For `CC(C)(O)[C@H](F)CNC(=O)c1cnc(-n2cnc3cc(Cl)cnc32)cc1Nc1cnn(CC(F)F)c1` [Example 359], the figures for the IC50 (on IRAK4 (IRAK4 Inhibition Assay); in test [1] (setting [2])) were 1.3 nM and 84 nM, respectively.
On to `CC(C)(O)[C@H](F)CNC(=O)c1cnc(-n2cnc3cc(Cl)cnc32)cc1Nc1cnn(CC(F)(F)F)c1` [Example 360], for which the IC50 at IRAK4 (IRAK4 Inhibition Assay) was found to be 1.5 nM; in test [1] (setting [2]) it was 376 nM.
In the case of `CCn1cc(Nc2cc(-n3cnc4cc(Cl)cnc43)ncc2C(=O)NC[C@@H](F)C(C)(C)O)cn1` [Example 361], the half-maximal inhibitory concentration (IC50) on IRAK4 (IRAK4 Inhibition Assay) is 2.9 nM; in test [1] (setting [2]), 206 nM.
As for `CC(C)n1cc(Nc2cc(-n3cnc4cc(Cl)cnc43)ncc2C(=O)NC[C@@H](F)C(C)(C)O)cn1` [Example 362], the IC50 on IRAK4 (IRAK4 Inhibition Assay) was determined as 4.3 nM; in test [1] (setting [2]), 486 nM.
On to `COCCn1cc(Nc2cc(-n3ncc4cc(C#N)cnc43)ncc2C(=O)NC[C@@H](F)C(C)(C)O)cn1` [Example 363], for which the IC50 on IRAK4 (IRAK4 Inhibition Assay) was 3.2 nM; in test [1] (setting [2]) it was 459 nM.
As to `COCCn1cc(Nc2cc(-n3ncc4cc(Cl)cnc43)ncc2C(=O)NC[C@@H](F)C(C)(C)O)cn1` [Example 364], the IC50 on IRAK4 (IRAK4 Inhibition Assay) came out at 2.6 nM; in test [1] (setting [2]), 83 nM.
As to `CC(F)(F)Cn1cc(Nc2cc(-n3ncc4cc(C#N)cnc43)ncc2C(=O)NC[C@@H](F)C(C)(C)O)cn1` [Example 365], the IC50 on IRAK4 (IRAK4 Inhibition Assay) came to 1.7 nM; in test [1] (setting [2]) it was 66 nM.
Take `COCCn1cc(Nc2cc(-n3cnc4cc(Cl)cnc43)ncc2C(=O)NC[C@@H](F)C(C)(C)O)cn1` [Example 366]: the IC50 on IRAK4 (IRAK4 Inhibition Assay) was 7.9 nM; in test [1] (setting [2]), 205 nM.
`CC(C)(O)[C@H](F)CNC(=O)c1cnc(-n2ncc3cc(Cl)cnc32)cc1Nc1cnn(CCCF)c1` [Example 367]: the concentration for half-maximal inhibition (IC50) was 1.3 nM on IRAK4 (IRAK4 Inhibition Assay) and 41 nM in test [1] (setting [2]).
For `CC(C)(O)[C@H](F)CNC(=O)c1cnc(-n2ncc3cc(C#N)cnc32)cc1Nc1cnn(CCCF)c1` [Example 368], in that order: 2.4 nM and 61 nM.
For `CC(F)(F)Cn1cc(Nc2cc(-n3ncc4cc(Cl)cnc43)ncc2C(=O)NC[C@@H](F)C(C)(C)O)cn1` [Example 369], in that order: 1.9 nM and 32 nM.
On to `CC(C)(O)[C@H](F)CNC(=O)c1cnc(-n2cnc3cc(Cl)cnc32)cc1Nc1cnn(CCCF)c1` [Example 370], for which the figures for the IC50 (at IRAK4 (IRAK4 Inhibition Assay); in test [1] (setting [2])) were 2.6 nM and 84 nM, respectively.
On to `CC(C)(O)[C@H](F)CNC(=O)c1cnc(-n2ccc3cc(C#N)cnc32)cc1Nc1cnn(CC(F)(F)F)c1` [Example 371], for which the IC50 is 2.1 nM at IRAK4 (IRAK4 Inhibition Assay) and 45 nM in test [1] (setting [2]).
In the same order, the values of `CCn1cc(Nc2cc(-n3ccc4cc(C#N)cnc43)ncc2C(=O)NC[C@@H](F)C(C)(C)O)cn1` [Example 372] are 1.2 nM and 2 nM.
In the same order, the values of `CC(C)(O)[C@H](F)CNC(=O)c1cnc(-n2ccc3cc(C#N)cnc32)cc1Nc1cnn(C2CCOCC2)c1` [Example 373] are 2.4 nM and 71 nM.
In the same order, the values of `CC(C)(O)[C@H](F)CNC(=O)c1cnc(-n2cnc3cc(Cl)cnc32)cc1Nc1cnn(CCC#N)c1` [Example 374] are 3.3 nM and 85 nM.
As to `CC(C)(O)[C@H](F)CNC(=O)c1cnc(-n2cnc3cc(C#N)cnc32)cc1Nc1cnn(CC(F)F)c1` [Example 375], the values for the IC50 (at IRAK4 (IRAK4 Inhibition Assay); in test [1] (setting [2])) were 1.8 nM and 156 nM, respectively.
For `CC(C)(O)[C@H](F)CNC(=O)c1cnc(-n2ncc3cc(C#N)cnc32)cc1Nc1cnn(CCC#N)c1` [Example 376], in that order: 2.1 nM and 349 nM.
Consider `CC(C)(O)[C@H](F)CNC(=O)c1cnc(-n2ncc3cc(Cl)cnc32)cc1Nc1cnn(CCC#N)c1` [Example 377], for which the IC50 on IRAK4 (IRAK4 Inhibition Assay) was 2.7 nM; in test [1] (setting [2]), 440 nM.
For `CCCn1cc(Nc2cc(-n3ncc4cc(C#N)cnc43)ncc2C(=O)NC[C@@H](F)C(C)(C)O)cn1` [Example 380], in that order: 2.9 nM and 228 nM.
In the same order, the values of `CCCn1cc(Nc2cc(-n3ncc4cc(Cl)cnc43)ncc2C(=O)NC[C@@H](F)C(C)(C)O)cn1` [Example 381] are 2.5 nM and 41 nM.
For `CCCn1cc(Nc2cc(-n3cnc4cc(Cl)cnc43)ncc2C(=O)NC[C@@H](F)C(C)(C)O)cn1` [Example 382], in that order: 2.5 nM and 482 nM.
`CCCn1cc(Nc2cc(-n3ccc4cc(C#N)cnc43)ncc2C(=O)NC[C@@H](F)C(C)(C)O)cn1` [Example 383]: the IC50 at IRAK4 (IRAK4 Inhibition Assay) amounted to 1.4 nM; in test [1] (setting [2]), 113 nM.
For the molecule `CC(C)(O)[C@H](F)CNC(=O)c1cnc(-n2ncc3cc(F)cnc32)cc1Nc1cnn(CC(F)F)c1` [Example 384], the IC50 came to 2.3 nM on IRAK4 (IRAK4 Inhibition Assay) and 24 nM in test [1] (setting [2]).
On to `CC(C)(O)[C@H](F)CNC(=O)c1cnc(-n2ncc3cc(C#N)cnc32)cc1Nc1cnn(S(C)(=O)=O)c1` [Example 385], for which the IC50 on IRAK4 (IRAK4 Inhibition Assay) worked out at 0.9 nM; in test [1] (setting [2]) it was 40 nM.
As to `CCNC(=O)n1cc(Nc2cc(-n3ncc4cc(C#N)cnc43)ncc2C(=O)NC[C@@H](F)C(C)(C)O)cn1` [Example 386], the half-inhibitory concentration (IC50) on IRAK4 (IRAK4 Inhibition Assay) was determined as 1.5 nM; in test [1] (setting [2]), 1080 nM. For the same molecule, in test [1] (PBMC TLR2 Induced IL-6 Assay, lipoteichoic acid stimulation, read-out: Cell EC50), the EC50 (as a rule, the concentration that produces a half-maximal response) was 79 nM.
`CC(C)NC(=O)c1cnc(-n2ncc3cc(C#N)cnc32)cc1Nc1cnn(CC(F)F)c1` [Example 388]: the IC50 is 11.2 nM at IRAK4 (IRAK4 Inhibition Assay) and 245 nM in test [1] (setting [2]).
Take `CCCNC(=O)c1cnc(-n2ncc3cc(C#N)cnc32)cc1Nc1cnn(CC(F)F)c1` [Example 389]: the IC50 turned out to be 4 nM on IRAK4 (IRAK4 Inhibition Assay) and 241 nM in test [1] (setting [2]).
For `CC(C)(C)NC(=O)c1cnc(-n2ncc3cc(C#N)cnc32)cc1Nc1cnn(CC(F)F)c1` [Example 390], the IC50 turned out to be 17 nM on IRAK4 (IRAK4 Inhibition Assay) and 199 nM in test [1] (setting [2]).
Consider `CC(C)CNC(=O)c1cnc(-n2ncc3cc(C#N)cnc32)cc1Nc1cnn(CC(F)F)c1` [Example 391], for which the IC50 on IRAK4 (IRAK4 Inhibition Assay) amounted to 6.2 nM; in test [1] (setting [2]) it was 241 nM.
On to `CCOCCNC(=O)c1cnc(-n2ncc3cc(C#N)cnc32)cc1Nc1cnn(CC(F)F)c1` [Example 392], for which the IC50 at IRAK4 (IRAK4 Inhibition Assay) is 7.1 nM; in test [1] (setting [2]), 16 nM.
In the same order, the values of `CCNC(=O)c1cnc(-n2ncc3cc(C#N)cnc32)cc1Nc1cnn(CC(F)F)c1` [Example 393] are 3.5 nM and 250 nM.
`CC(C)(F)[C@H](F)CNC(=O)c1cnc(-n2ncc3cc(C#N)cnc32)cc1Nc1cnn(CC(F)F)c1` [Example 395]: the IC50 was found to be 2.2 nM at IRAK4 (IRAK4 0.6 nM) and 85 nM in test [1] (setting [3]).
On to `CC(C)(O)[C@H]1CC[C@H](NC(=O)c2cnc(-n3ncc4cc(C#N)cnc43)cc2Nc2cnn(CC(F)F)c2)CC1` [Example 396], for which the IC50 is 8.6 nM on IRAK4 (IRAK4 0.6 nM) and 157 nM in test [1] (setting [3]).
In the same order, the values of `CC(C)(O)C(F)(F)CNC(=O)c1cnc(-n2ncc3cc(C#N)cnc32)cc1Nc1cnn(CC(F)F)c1` [Example 397] are 6.6 nM and 210 nM.
Regarding `Cn1cc(Nc2cc(-n3ncc4cc(Cl)cnc43)ncc2C(=O)NC[C@@H](F)C(C)(C)O)cn1` [Example 398], the IC50 at IRAK4 (IRAK4 0.6 nM) is 4.9 nM; in test [1] (setting [3]), 277 nM.
